Data from patent publication US20230265167A1, “COMPOSITIONS HAVING NEUROREGENERATIVE APPLICATIONS” (GRIFOLS WORLDWIDE OPERATIONS LIMITED, priority 2020, published 2023).
“Also recorded” adds a separate entry of the source.

Experiments:
[1] = system: primary human brain cortex-derived neural progenitor cells; assay: Differentiation of primary human neural progenitor cells (β-III-tubulin / GFAP staining); format: cell-based; conditions: 0.8 mg/mL, 72 hours
Experimental: Neural progenitor cells maintained as neurospheres were obtained from Lonza (PT-2599). Cells were thawed from a frozen vial of neurospheres and cultured in Human NeuroCult™ NS-A Complete Proliferation media (Stemcell Technologies) for 2 weeks. Neurospheres were dissociated to single cells and plated in Laminin coated wells of assay plates. The neural progenitor cells were seeded in NeuroCult™ NS-A Basal media containing 1/10th concentration of the recommended proliferation supplements, in the absence or presence of ApoTf (0.8 mg/mL) for 72 hours. At the time of analysis, cells were fixed with paraformaldehyde, stained for β-III-tubulin (R&D Systems, MAB1195) and GFAP (Invitrogen, PA3-16727), and imaged on a Molecular Devices Nano imaging instrument. Image analysis was performed by assessing the relative numbers of cells staining positive for β-III-tubulin or GFAP. Values for the indicated conditions are shown with standard deviations as “% β-III-Tubulin Positive” cells (FIG. 2A) or “% GFAP Positive” cells (FIG. 2B).

[2] = system: C57BL/6J mice with transient MCAo; assay: Neurogenesis in dentate gyrus of mice after transient MCAo (BrdU/DCX, BrdU/NeuN immunohistochemistry); format: in vivo, mouse; conditions: 350 mg/kg i.p. daily 7 days, vs saline; for number of new neuroblasts (BrdU+/DCX+ cells): FIG. 9A, two-week period; for number of newly formed mature neurons (BrdU+/NeuN+ cells): FIG. 9B, after 4 weeks
Experimental: C57BL/6J mice (ca. 20 g) were anaesthetized under isoflurane and, after dissection, a 6.0 silicon-coated monofilament suture was inserted into the external carotid artery to occlude the middle cerebral artery (MCAo). The occlusion was carried out for 60 minutes under temperature control.
Only animals with a ‘neuroscore’ of 4 or greater were considered for further testing (n=8-10 animals/group). At six hours post-occlusion, mice were injected daily with 350 mg/kg of Apo-transferrin (i.p.) or an equal volume of saline for a total of seven days, as well as with 50 mg/kg Bromodeoxyuridine (BrdU; Sigma-Aldrich Chemical, St. Louis, Mo.), both articles delivered by intraperitoneal administration. Weight changes were monitored daily.
At the times indicated in Example 9, brains were prepared for analysis by transcardial perfusion with ice cold heparinized saline (heparin at 2.5 IU/ml) in order to remove blood from the brains. Fresh brains were removed leaving the right cerebellum attached to whole left-brain hemisphere to help orientate the brain block in sectioning. The whole left hemisphere block was placed in 4% paraformaldehyde in 0.1 M phosphate buffer (PB) for 24 hours at +4° C., then cryoprotected in 30% sucrose in 0.1 M PB for 2-3 days on a shaker at +4° C. The brain was then blotted to remove excess liquid, placed on top of a vial cork and frozen on top of liquid nitrogen; the block was then stored at −80° C. until cryostat sections are obtained. Neurogenesis was evaluated by immunohistochemistry using antibodies against BrdU and Doublecortin (DCX) to quantify new neuroblasts or against BrdU and NeuN to quantify new neurons in the dentate gyrus of the brain.

SH-SY5Y cells = assay: β-III-tubulin staining intensity in SH-SY5Y cells; format: cell-based, human; conditions: FIG. 1D
Experimental: In this experiment, the SH-SY5Y cells were differentiated as described supra. At the time of analysis, cells were fixed with paraformaldehyde, stained for β-III-tubulin (R&D Systems, MAB1195), and imaged on a Molecular Devices Nano imaging instrument. Image analysis was performed by assessing the fluorescent intensity of cells stained with β-III-tubulin. Background from secondary antibody alone was subtracted from all values. Values are shown with standard deviations as “β-III-Tubulin Staining Intensity” for the indicated conditions.

## apo-transferrin: iron-free form of transferrin protein, obtained and purified from pooled human plasma
[1]; FIG. 2A
  % β-III-Tubulin Positive cells (neurons): dramatically increases the percentage of cells differentiated to neurons; also recorded: induces primary human neural progenitor cells to become β-III-tubulin protein positive neurons
[1]; FIG. 2B
  % GFAP Positive cells (astrocytes): dramatically increases; also recorded: GFAP protein positive astrocytes cells
[2]
  number of new neuroblasts (BrdU+/DCX+ cells): increases the amount of neurogenesis
  number of newly formed mature neurons (BrdU+/NeuN+ cells): increases the amount of neurogenesis
[2]; listed as ApoTf
  number of new neuroblasts (BrdU+/DCX+ cells): increases the number of neuroblasts
  number of newly formed mature neurons (BrdU+/NeuN+ cells): number of newly formed mature neurons are higher
SH-SY5Y cells
  β-III-Tubulin Staining Intensity: caused an increase in β-III-tubulin protein
